Source: patent publication US12637461B2, “Compounds for the activation of AMPK” (PFIZER INC., priority 2022, dated 2026)
pEC50: −log10 of the molar value.

Target: T1, human AMPK α2β2γ3 (Homo sapiens, UniProt O43741+P54646+Q9UGI9)
T1 construct: expressed in transfected cells; host or cells: HEK293AD cells, MaxCyte bulk electroporation
Experiment: Primary cellular assay: γ3 associated phospho-Thr172 AMPK detection (custom pAMPK Surefire AlphaLISA) in α2β2γ3 bulk transiently transfected HEK293 cells
Type: cell-based
Conditions: activation of human AMPK α2β2γ3 (γ3 pThr172 AMPK signal) in transiently transfected HEK293 cells, 20 minutes compound incubation; for Emax: 20 min, read-out: Assay GMean Asy. Max (%); for Emax / Assay GMean Asy. Max (%): geometric mean of the asymptotic max; for pEC50: geometric mean EC50, read-out: Assay GMean EC50
Method: Primary Cellular Assay—γ3 Associated Phospho-Thr172 AMPK Detection in α2β2γ3 Bulk Transiently Transfected HEK293 Cells
The cellular potencies of the compounds were evaluated using a custom pAMPK Surefire AlphaLISA designed to assess γ3 associated phospho-Thr172 AMPK and modulation by small molecules in AMPK α2β2γ3 transiently transfected HEK293 cells.
A pAMPK Surefire AlphaLISA (PE-ASLU-PAMPK) assay available through Perkin Elmer was modified to selectively assess γ3 pThr172 AMPK content (as opposed to total pThr172 AMPK) by labeling a γ3 antibody with a CaptSure™ tag and substituting it for the total α1c/α2 AMPK labeled antibodies in the kit. In the modified assay, the overall abundance of γ3 AMPK is recognized by the CaptSure γ3 antibody and the phosphorylated AMPK is recognized by biotinylated pThr172 antibody. Subsequent reactivity with streptavitin donor beads and anti CaptSure conjugated acceptor beads brings the molecules into close proximity. Upon excitation at 680 nm, the donor bead converts ambient oxygen to a more excited singlet state which reacts with the acceptor bead and emits light at 520 to 620 nm. The intensity of the signal is proportional to the level of γ3 associated pThr172 AMPK phosphorylation.
In short, AMPK-α2+β2+γ3 MaxCyte bulk-transfected HEK293AD cells were thawed in growth media (DMEM High glucose+10% FBS) in a collagen-coated T150 flask and the cells were allowed to adhere and grow overnight in a 37° C. incubator. The following day, the cells were harvested and resuspended in plating medium (DMEM Low glucose+10% FBS) at a concentration of 100,000 cells per mL and 50 μL of this cell suspension was added to all wells of a 384-well plate using a Multidrop Combi. The cells were allowed to adhere and grow for 2 days in a 37° C. incubator. On assay day, compounds were diluted in 100% dimethyl sulfoxide (DMSO) in a 11 dose, half log dilution scheme and spotted in the cell plates at 1000× the final concentration. Compound incubations were performed in plating media for 20 minutes. Cells were washed with PBS, lysed and the signal was generated by subsequent additions of RB1 reagent from the kit, 1:1000 CaptSure γ3 labeled antibody in 1× immunoassay buffer, Anti-CaptSure acceptor beads and Streptavitin donor beads at final concentration of […]. The γ3 pThr172 AMPK signal was developed using EnVision™ multilabel reader (Perkin Elmer) using Alphascreen settings. The fluorescence emission was used to calculate the % effect relative to the HPE (30 μM) and ZPE (DMSO). EC50 curves were generated with the ActivityBase software using the XLfit model 205 to determine EC50 and Emax values.
For screening purposes, bulk AMPK-α2+β2+γ3 MaxCyte bulk transfection into HEK293AD cells were generated to support SAR screening as follows.
HEK293AD cells were seeded into 10 flasks at 2.7×10^7 cells per flask. The following day 12 mL of Trypl E dissociation reagent were added to each flask to lift the cells and the cells were then spun at 300×g for 5 minutes. Cells were washed once in MaxCyte EP buffer and then resuspended in MaxCyte EP buffer at 1×10^8 cells per mL. For transfection, 500×10^6 cells in 500 μl MaxCyte EP buffer were placed in a CL1.1 Processing Assembly (electroporation cell) with 1 mg/mL ([…]) of each of the plasmids pcDNA3.1(+)-human AMPK alpha 2, pcDNA3.1(+)-human AMPK beta 2 and pcDNA3.1(+)-human AMPK gamma 3 and the electroporation was carried out on the MaxCyte STX using the HEK293 electroporation protocol. Following electroporation, cells were transferred to a T175 flask containing growth medium (DMEM High glucose+10% FBS) and allowed to recover for 25 minutes, then the cells were resuspended to final volume of 900 mL and distributed into 6XT175 flasks and allowed to adhere and grow overnight in a 37° C. incubator. […]

T1 sequence (P54646 whole entry): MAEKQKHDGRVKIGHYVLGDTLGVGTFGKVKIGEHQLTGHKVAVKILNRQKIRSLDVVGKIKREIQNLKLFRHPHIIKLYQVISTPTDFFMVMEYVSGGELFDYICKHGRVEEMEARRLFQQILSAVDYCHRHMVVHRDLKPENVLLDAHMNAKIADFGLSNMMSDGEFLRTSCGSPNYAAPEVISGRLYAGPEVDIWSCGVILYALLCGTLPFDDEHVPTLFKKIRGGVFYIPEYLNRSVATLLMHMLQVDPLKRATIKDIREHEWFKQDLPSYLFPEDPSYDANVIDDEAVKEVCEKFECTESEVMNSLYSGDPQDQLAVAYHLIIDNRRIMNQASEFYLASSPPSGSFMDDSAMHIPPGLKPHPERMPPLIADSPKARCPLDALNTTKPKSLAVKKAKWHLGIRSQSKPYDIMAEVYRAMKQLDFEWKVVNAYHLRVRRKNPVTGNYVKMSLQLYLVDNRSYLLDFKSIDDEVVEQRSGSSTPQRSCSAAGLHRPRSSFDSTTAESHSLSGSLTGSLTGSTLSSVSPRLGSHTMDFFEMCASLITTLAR
T1 sequence (O43741 whole entry): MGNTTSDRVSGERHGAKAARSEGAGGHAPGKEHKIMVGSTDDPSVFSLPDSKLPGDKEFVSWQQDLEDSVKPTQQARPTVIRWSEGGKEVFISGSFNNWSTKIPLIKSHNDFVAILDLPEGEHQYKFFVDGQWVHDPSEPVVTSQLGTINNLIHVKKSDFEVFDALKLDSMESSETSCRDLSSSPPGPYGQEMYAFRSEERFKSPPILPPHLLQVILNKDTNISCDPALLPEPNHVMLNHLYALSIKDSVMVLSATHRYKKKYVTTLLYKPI
T1 sequence (Q9UGI9 whole entry): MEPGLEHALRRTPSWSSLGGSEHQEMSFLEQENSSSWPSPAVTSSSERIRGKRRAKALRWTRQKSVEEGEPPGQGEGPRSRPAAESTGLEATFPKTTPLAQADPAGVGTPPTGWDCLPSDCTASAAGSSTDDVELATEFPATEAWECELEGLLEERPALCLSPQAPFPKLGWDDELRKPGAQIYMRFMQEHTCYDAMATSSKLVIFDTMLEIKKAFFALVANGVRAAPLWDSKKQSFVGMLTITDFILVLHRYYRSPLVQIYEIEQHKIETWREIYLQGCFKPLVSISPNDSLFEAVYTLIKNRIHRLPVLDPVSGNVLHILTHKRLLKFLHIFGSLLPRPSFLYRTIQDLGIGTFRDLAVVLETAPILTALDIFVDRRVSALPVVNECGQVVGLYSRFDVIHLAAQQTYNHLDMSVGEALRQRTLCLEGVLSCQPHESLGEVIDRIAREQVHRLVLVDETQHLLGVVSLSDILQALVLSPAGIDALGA

| SMILES | Emax | pEC50 | Assay GMean Asy. Max (%) |
| --- | --- | --- | --- |
| Cn1cnc(N2C[C@](C)(c3cccc(Cl)c3F)c3c(cnc(NC4CN(C(=O)C5CC5C(F)(F)F)C4)c3F)C2=O)c1 (single isomer, unassigned) [compound 98] |  | 6.94 | 66.2% |
| CN(CC1CC1)C(=O)CN1CC(Nc2ncc3c(c2F)[C@@](C)(c2cccc(Cl)c2F)CN(c2nn(C)cc2F)C3=O)C1 [compound 73, 2-(3-{[(5R)-5-(3-chloro-2-fluorophenyl)-4-fluoro-7-(4-fluoro-1-methyl-1H-pyrazol-3-yl)-5-methyl-8-oxo-5,6,7,8-tetrahydro-2,7-naphthyridin-3-yl]amino}azetidin-1-yl)-N-(cyclopropylmethyl)-N-methylacetamide] | 46.1% | 7.34 |  |
| Cn1cc(F)c(N2C[C@](C)(c3cccc(Cl)c3F)c3c(cnc(NC4CN(C(=O)CC(C)(C)O)C4)c3F)C2=O)n1 [compound 64, (4R)-4-(3-chloro-2-fluorophenyl)-5-fluoro-2-(4-fluoro-1-methyl-1H-pyrazol-3-yl)-6-{[1-(3-hydroxy-3-methylbutanoyl)azetidin-3-yl]amino}-4-methyl-3,4-dihydro-2,7-naphthyridin-1(2H)-one] | 80.4% | 6.80 |  |
| Cn1cnc(N2C[C@](C)(c3cccc(Cl)c3F)c3c(cnc(NC4CN(C(=O)[C@@H]5C[C@@H]5F)C4)c3F)C2=O)c1 [compound 94, (4R)-4-(3-chloro-2-fluorophenyl)-5-fluoro-6-({1-[(1S,2S)-2-fluorocyclopropane-1-carbonyl]azetidin-3-yl}amino)-4-methyl-2-(1-methyl-1H-imidazol-4-yl)-3,4-dihydro-2,7-naphthyridin-1(2H)-one] | 50.3% | 6.67 |  |
| CN(C(=O)CN1CC(Nc2ncc3c(c2F)[C@@](C)(c2cccc(Cl)c2F)CN(c2nn(C)cc2F)C3=O)C1)C1CC1 [Example 11, 2-(3-{[(5R)-5-(3-Chloro-2-fluorophenyl)-4-fluoro-7-(4-fluoro-1-methyl-1H-pyrazol-3-yl)-5-methyl-8-oxo-5,6,7,8-tetrahydro-2,7-naphthyridin-3-yl]amino}azetidin-1-yl)-N-cyclopropyl-N-methylacetamide] | 160% | 7.64 |  |
| C[C@]1(c2cccc(Cl)c2F)CN(c2ccc(CO)cn2)C(=O)c2cnc(NC3CN(C(=O)[C@@H]4C[C@@H]4F)C3)c(F)c21 [compound 52, (4R)-4-(3-chloro-2-fluorophenyl)-5-fluoro-6-({1-[(1S,2S)-2-fluorocyclopropane-1-carbonyl]azetidin-3-yl}amino)-2-[5-(hydroxymethyl)pyridin-2-yl]-4-methyl-3,4-dihydro-2,7-naphthyridin-1(2H)-one] | 65.4% | 7.32 |  |
| Cn1cc(F)c(N2C[C@](C)(c3cccc(Cl)c3F)c3c(cnc(NC4CN(C(=O)[C@H]5C[C@@H]5F)C4)c3F)C2=O)n1 [Example 8, (4R)-4-(3-Chloro-2-fluorophenyl)-5-fluoro-6-({1-[(1R,2S)-2-fluorocyclopropane-1-carbonyl]azetidin-3-yl}amino)-2-(4-fluoro-1-methyl-1H-pyrazol-3-yl)-4-methyl-3,4-dihydro-2,7-naphthyridin-1(2H)-one] | 58.2% | 7.20 |  |
| C[C@]1(c2cccc(Cl)c2F)CN(c2ccc(N)cn2)C(=O)c2cnc(NC3CN(C(=O)[C@@H]4C[C@@H]4F)C3)c(F)c21 [Example 15, (4R)-2-(5-aminopyridin-2-yl)-4-(3-chloro-2-fluorophenyl)-5-fluoro-6-({1-[(1S,2S)-2-fluorocyclopropane-1-carbonyl]azetidin-3-yl}amino)-4-methyl-3,4-dihydro-2,7-naphthyridin-1(2H)-one] | 61.5% | 7.50 |  |
| C[C@]1(c2cccc(Cl)c2F)CN(c2ccc([C@H]3COCCN3)cn2)C(=O)c2cnc(NC3CN(C(=O)c4cccnn4)C3)c(F)c21 (single isomer, unassigned) [Example 16] | 75.4% | 6.12 |  |

More lines, in order of rising pEC50, values ahead:

| Emax | pEC50 | Assay GMean Asy. Max (%) | SMILES |
| --- | --- | --- | --- |
| 159% | 6.47 |  | CC1(c2cccc(Cl)c2F)CN(c2ncccc2F)C(=O)c2cnc(NC3CN(C(=O)[C@](C)(O)C(F)(F)F)C3)nc21 (single isomer, unassigned) [compound 111] |
| 62.4% | 6.80 |  | C[C@]1(c2cccc(Cl)c2F)CN(c2ccc(CO)cn2)C(=O)c2cnc(NC3CN(C(=O)c4ncccn4)C3)c(F)c21 [compound 59, (4R)-4-(3-chloro-2-fluorophenyl)-5-fluoro-2-[5-(hydroxymethyl)pyridin-2-yl]-4-methyl-6-{[1-(pyrimidine-2-carbonyl)azetidin-3-yl]amino}-3,4-dihydro-2,7-naphthyridin-1(2H)-one] |
| 56% | 6.95 |  | Cn1cnc(N2C[C@](C)(c3cccc(Cl)c3F)c3c(cnc(NC4CN(C(=O)C(C)(C)O)C4)c3F)C2=O)c1 [Example 3, (4R)-4-(3-Chloro-2-fluorophenyl)-5-fluoro-6-{[1-(2-hydroxy-2-methylpropanoyl)azetidin-3-yl]amino}-4-methyl-2-(1-methyl-1H-imidazol-4-yl)-3,4-dihydro-2,7-naphthyridin-1(2H)-one] |
|  | 7.11 | 77.9% | Cn1cc(F)c(N2C[C@](C)(c3cccc(Cl)c3F)c3c(cnc(NC4CN(C(=O)C(O)CC(F)(F)F)C4)c3F)C2=O)n1 (single isomer, unassigned) [compound 44] |
| 40.1% | 7.11 |  | CNC(=O)CN1CC(Nc2ncc3c(c2F)[C@@](C)(c2cccc(Cl)c2F)CN(c2nn(C)cc2F)C3=O)C1 [compound 67, 2-(3-{[(5R)-5-(3-chloro-2-fluorophenyl)-4-fluoro-7-(4-fluoro-1-methyl-1H-pyrazol-3-yl)-5-methyl-8-oxo-5,6,7,8-tetrahydro-2,7-naphthyridin-3-yl]amino}azetidin-1-yl)-N-methylacetamide] |
| 49.7% | 7.15 |  | Cn1cc(F)c(N2C[C@](C)(c3cccc(Cl)c3F)c3c(cnc(NC4CN(C(=O)[C@H]5C[C@H]5F)C4)c3F)C2=O)n1 [compound 99, (4R)-4-(3-chloro-2-fluorophenyl)-5-fluoro-6-({1-[(1R,2R)-2-fluorocyclopropane-1-carbonyl]azetidin-3-yl}amino)-2-(4-fluoro-1-methyl-1H-pyrazol-3-yl)-4-methyl-3,4-dihydro-2,7-naphthyridin-1(2H)-one] |
| 38.4% | 7.70 |  | Cc1c(F)ccc(C2(C)CN(c3ccc(CO)cn3)C(=O)c3cnc(NC4CN(C(=O)[C@@H]5C[C@@H]5F)C4)c(F)c32)c1F (single isomer, unassigned) [compound 105] |
| 163% | 7.72 |  | CC1(c2cccc(Cl)c2F)CN(c2ccc(CO)cn2)C(=O)c2ccc(NC3CN(C(=O)N4C[C@@H]5C[C@H]4CO5)C3)c(F)c21 (single isomer, unassigned) [Example 37] |
